Where a name gives a salt, the structure may show the parent alone. Read-outs that look alike come from different tables or passages of the source.
Legend:
human NaV1.7 = biological target: T1, human NaV1.7 (Homo sapiens, UniProt Q15858); test: Patch voltage clamp electrophysiology assay (EP), NaV1.7; assay type: cell-based; settings: HEK-293 cells stably expressing NaV1.7 with β1 subunit; whole-cell patch clamp, membrane potential −60 mV (inactivated state)
T1 construct: permanently transfected with an expression vector containing the full-length cDNA coding for the desired human sodium channel α-subunit; expressed in transfected cells; host or cells: HEK-293
Description: (§1) The following patch voltage clamp electrophysiology studies were performed on representative compounds of the invention using human embryonic kidney cells (HEK), permanently transfected with an expression vector containing the full-length cDNA coding for the desired human sodium channel α-subunit, grown in culture media containing 10% FBS, 1% PSG, and 0.5 mg/mL G418 at 37° C. with 5% CO2. […] NaV1.7 and NaV1.5 cDNAs (NM_002977 and AC137587; SCN5A, respectively) were stably expressed in HEK-293 cells. The β1 subunit was coexpressed in both the NaV1.7 and NaV1.5 cell lines.
(§2) Sodium currents were measured using the patch clamp technique in the whole-cell configuration using either a PatchXpress automated voltage clamp or manually using an Axopatch 200B (Axon Instruments) or Model 2400 (A-M systems) amplifier. The manual voltage clamp protocol was as follows: Borosilicate glass micropipettes were fire-polished to a tip diameter yielding a resistance of 2-4 Mohms in the working solutions. The pipette was filled with a solution comprised of: 5 mM NaCl, 10 mM CsCl, 120 mM CsF, 0.1 mM CaCl2, 2 mM MgCl2, 10 mM HEPES, 10 mM EGTA; and adjusted to pH 7.2 with CsOH. The external solution had the following composition: 140 mM NaCl, 5 mM KCl, 2 mM CaCl2, 1 mM MgCl2, 10 mM HEPES; and adjusted to pH 7.4 with NaOH. In some studies, the external sodium was reduced by equimolar replacement with choline. Osmolarity in the CsF internal and NaCl external solutions was adjusted to 300 mOsm/kg and 310 mOsm/kg with glucose, respectively. All recordings were performed at ambient temperature in a bath chamber with a volume of 150 μL. Control sodium currents were measured in 0.5% DMSO. Controls and representative compounds of the invention were applied to the recording chamber through a 4-pinch or 8-pinch valve bath perfusion system manufactured by ALA Scientific Instruments.
(§3) Series resistance compensation was applied (60-80%). […] All statistics in this study are given as mean±SD.
(§4) The membrane potential was maintained at a voltage where inactivation of the channel is complete (which was −60 mV for both NaV1.7 and NaV1.5). The voltage is then stepped back to a very negative (Vhold=[…]) voltage for 20 ms and then a test pulse is applied to quantify the compound block. […] The percent decrease in sodium current following wash-on of compound was taken as the percent block of sodium channels.

hNav1.7 = biological target: T2, hNav1.7 (Homo sapiens, UniProt Q15858); test: Tritiated compound binding (LBA) to membranes from cells expressing hNav1.7 and the β1 subunit, competitive binding; settings: competitive binding vs 100 pM [3H]compound, 18 h, room temperature, membranes with hNav1.7 and β1 subunit
T2 construct: expressed in transfected cells
Description: Tritiated Compound Binding to Membranes
Isolated from Cells that Heterologously Express hNav1.7 and the β1 Subunit
Preparation of membranes containing recombinantly expressed sodium channels: Frozen recombinant cell pellets were thawed on ice and diluted to 4 times the cell pellet weight with ice cold 50 mM Tris HCl, pH 7.4 buffer. The cell suspensions were homogenized on ice using a motorized glass dounce homogeniser. […] The supernatants were collected and centrifuged at 10000×g at 4° C. for 50 min. The pellets were then re-suspended in 100 mM NaCl, 20 mM Tris HCl, pH 7.4 buffer containing 1% v/v protease inhibitors (Calbiochem) and re-homogenized on ice. The homogenized membranes were then processed through a syringe equipped with a 26 gauge needle. Protein concentrations were determined by Bradford Assay and the membranes were stored at −80° C.
Saturation experiments. A representative compound of formula (I) having a methyl group was tritiated. Three tritiums were incorporated in place of methyl hydrogens to generate [^3H]compound. Binding of this radioligand was performed in 5 mL borosilicate glass test tubes at room temperature. Binding was initiated by adding membranes to increasing concentrations of [^3H]compound in 100 mM NaCl, 20 mM Tris HCl, pH 7.4 buffer containing 0.01% w/v bovine serum albumin (BSA) for 18 h. Non-specific binding was determined in the presence of 1 μM unlabeled compound. After 18 h, the reactants were filtered through GF/C glass fiber filters presoaked in 0.5% w/v polyethylene imine. […] [^3H]compound bound to filters was quantified by liquid scintillation counting.
Binding reactions were performed in 96-well polypropylene plates at room temperature for 18 h. In 360 μL, membranes were incubated with 100 pM [^3H]compound and increasing concentrations of Test Compound. Non-specific binding was defined in the presence of 1 μM unlabeled compound. Reactions were transferred and filtered through 96-well glass fiber/C filter plates presoaked with 0.5% polyethylene imine. […] Bound radioactivity was determined by liquid scintillation counting.
Data Analysis: For saturation experiments, non-specific binding was subtracted from total binding to provide specific binding and these values were recalculated in terms of pmol ligand bound per mg protein. Saturation curves were constructed and dissociation constants were calculated using the single site ligand binding model: Beq=(Bmax*X)/(X+Kd), where Beq is the amount of ligand bound at equilibrium, Bmax is the maximum receptor density, Kd is the dissociation constant for the ligand, and X is the free ligand concentration. For competition studies percent inhibition was determined and IC50 values were calculated using a 4 parameter logistic model (% inhibition=(A+((B−A)/(1+((x/C)^D)))) using XLfit, where A and B are the maximal and minimum inhibition respectively, C is the IC50 concentration and D is the (Hill) slope.

NaV1.5 = biological target: T3, NaV1.5 (Homo sapiens, UniProt Q14524); test: Patch voltage clamp electrophysiology assay (EP), NaV1.5; assay type: cell-based; settings: HEK-293 cells stably expressing NaV1.5 with β1 subunit, whole-cell patch clamp, membrane potential −60 mV (inactivated state)
T3 construct: permanently transfected with an expression vector containing the full-length cDNA coding for the desired human sodium channel α-subunit; expressed in transfected cells; host or cells: HEK-293
Description: as §1, §2, §3, §4

[1] = human, HEK-293 cells stably expressing human NaV1.5 with β1 subunit, pH 7.4

T1 sequence (Q15858 1-1977 isoform Q15858-3): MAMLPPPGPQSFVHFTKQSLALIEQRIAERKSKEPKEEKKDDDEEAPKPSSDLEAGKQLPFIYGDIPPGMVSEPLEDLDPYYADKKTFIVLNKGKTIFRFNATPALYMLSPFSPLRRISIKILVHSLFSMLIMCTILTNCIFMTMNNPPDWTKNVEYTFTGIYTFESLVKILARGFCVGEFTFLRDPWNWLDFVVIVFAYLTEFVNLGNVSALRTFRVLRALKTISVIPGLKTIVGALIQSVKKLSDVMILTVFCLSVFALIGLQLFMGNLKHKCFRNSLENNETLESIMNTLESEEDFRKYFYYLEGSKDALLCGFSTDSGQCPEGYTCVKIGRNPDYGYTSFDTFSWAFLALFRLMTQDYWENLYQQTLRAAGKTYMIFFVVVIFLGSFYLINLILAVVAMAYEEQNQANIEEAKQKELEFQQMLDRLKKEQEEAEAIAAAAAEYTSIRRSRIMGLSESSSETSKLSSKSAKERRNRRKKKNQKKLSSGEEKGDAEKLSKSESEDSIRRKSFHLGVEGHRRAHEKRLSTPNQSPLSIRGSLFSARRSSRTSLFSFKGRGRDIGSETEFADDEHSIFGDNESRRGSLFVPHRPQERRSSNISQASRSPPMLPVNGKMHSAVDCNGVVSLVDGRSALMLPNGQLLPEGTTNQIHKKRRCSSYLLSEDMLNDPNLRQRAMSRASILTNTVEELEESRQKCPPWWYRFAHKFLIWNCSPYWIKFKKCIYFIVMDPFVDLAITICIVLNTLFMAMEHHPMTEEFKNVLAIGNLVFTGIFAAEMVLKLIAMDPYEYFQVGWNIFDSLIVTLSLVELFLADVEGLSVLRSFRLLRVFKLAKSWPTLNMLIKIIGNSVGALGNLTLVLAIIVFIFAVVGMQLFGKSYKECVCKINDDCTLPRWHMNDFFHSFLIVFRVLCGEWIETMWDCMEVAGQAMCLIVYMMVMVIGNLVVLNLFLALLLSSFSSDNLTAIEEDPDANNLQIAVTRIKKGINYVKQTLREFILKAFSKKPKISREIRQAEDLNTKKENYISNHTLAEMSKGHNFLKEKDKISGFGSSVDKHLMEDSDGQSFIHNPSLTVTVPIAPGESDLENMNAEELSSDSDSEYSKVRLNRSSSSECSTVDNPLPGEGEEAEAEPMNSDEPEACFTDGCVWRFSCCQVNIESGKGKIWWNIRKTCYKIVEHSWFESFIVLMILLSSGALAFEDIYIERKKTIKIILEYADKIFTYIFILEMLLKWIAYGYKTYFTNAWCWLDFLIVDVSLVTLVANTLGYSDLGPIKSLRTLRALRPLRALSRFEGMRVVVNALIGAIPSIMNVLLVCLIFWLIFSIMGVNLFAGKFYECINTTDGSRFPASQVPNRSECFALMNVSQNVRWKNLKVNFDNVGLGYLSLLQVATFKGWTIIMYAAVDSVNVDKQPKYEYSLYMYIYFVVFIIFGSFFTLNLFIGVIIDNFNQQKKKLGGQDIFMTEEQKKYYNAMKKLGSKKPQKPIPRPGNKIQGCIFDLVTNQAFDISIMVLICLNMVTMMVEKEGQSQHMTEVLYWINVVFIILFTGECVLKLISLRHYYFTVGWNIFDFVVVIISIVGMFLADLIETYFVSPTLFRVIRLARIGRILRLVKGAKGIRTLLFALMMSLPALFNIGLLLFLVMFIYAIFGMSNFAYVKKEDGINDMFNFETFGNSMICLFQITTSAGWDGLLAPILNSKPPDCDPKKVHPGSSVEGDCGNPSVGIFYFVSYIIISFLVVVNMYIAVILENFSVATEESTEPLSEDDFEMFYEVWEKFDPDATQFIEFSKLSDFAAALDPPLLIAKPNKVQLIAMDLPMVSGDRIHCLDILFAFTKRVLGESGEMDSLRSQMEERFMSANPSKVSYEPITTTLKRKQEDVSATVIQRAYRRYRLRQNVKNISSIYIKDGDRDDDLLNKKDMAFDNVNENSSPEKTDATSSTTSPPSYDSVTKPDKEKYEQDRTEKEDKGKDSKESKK
T1 sequence (Q07699 19-218 partner): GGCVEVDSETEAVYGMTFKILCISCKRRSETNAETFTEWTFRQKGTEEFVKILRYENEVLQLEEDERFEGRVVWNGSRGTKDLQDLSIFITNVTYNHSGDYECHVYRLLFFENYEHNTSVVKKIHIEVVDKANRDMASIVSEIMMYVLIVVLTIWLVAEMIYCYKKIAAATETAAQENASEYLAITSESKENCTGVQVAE
T2 sequence (Q15858 1-1977 isoform Q15858-3): as the sequence (Q15858 1-1977 isoform Q15858-3) above
T2 sequence (Q07699 19-218 partner): as the sequence (Q07699 19-218 partner) above
T3 sequence (Q14524 whole entry): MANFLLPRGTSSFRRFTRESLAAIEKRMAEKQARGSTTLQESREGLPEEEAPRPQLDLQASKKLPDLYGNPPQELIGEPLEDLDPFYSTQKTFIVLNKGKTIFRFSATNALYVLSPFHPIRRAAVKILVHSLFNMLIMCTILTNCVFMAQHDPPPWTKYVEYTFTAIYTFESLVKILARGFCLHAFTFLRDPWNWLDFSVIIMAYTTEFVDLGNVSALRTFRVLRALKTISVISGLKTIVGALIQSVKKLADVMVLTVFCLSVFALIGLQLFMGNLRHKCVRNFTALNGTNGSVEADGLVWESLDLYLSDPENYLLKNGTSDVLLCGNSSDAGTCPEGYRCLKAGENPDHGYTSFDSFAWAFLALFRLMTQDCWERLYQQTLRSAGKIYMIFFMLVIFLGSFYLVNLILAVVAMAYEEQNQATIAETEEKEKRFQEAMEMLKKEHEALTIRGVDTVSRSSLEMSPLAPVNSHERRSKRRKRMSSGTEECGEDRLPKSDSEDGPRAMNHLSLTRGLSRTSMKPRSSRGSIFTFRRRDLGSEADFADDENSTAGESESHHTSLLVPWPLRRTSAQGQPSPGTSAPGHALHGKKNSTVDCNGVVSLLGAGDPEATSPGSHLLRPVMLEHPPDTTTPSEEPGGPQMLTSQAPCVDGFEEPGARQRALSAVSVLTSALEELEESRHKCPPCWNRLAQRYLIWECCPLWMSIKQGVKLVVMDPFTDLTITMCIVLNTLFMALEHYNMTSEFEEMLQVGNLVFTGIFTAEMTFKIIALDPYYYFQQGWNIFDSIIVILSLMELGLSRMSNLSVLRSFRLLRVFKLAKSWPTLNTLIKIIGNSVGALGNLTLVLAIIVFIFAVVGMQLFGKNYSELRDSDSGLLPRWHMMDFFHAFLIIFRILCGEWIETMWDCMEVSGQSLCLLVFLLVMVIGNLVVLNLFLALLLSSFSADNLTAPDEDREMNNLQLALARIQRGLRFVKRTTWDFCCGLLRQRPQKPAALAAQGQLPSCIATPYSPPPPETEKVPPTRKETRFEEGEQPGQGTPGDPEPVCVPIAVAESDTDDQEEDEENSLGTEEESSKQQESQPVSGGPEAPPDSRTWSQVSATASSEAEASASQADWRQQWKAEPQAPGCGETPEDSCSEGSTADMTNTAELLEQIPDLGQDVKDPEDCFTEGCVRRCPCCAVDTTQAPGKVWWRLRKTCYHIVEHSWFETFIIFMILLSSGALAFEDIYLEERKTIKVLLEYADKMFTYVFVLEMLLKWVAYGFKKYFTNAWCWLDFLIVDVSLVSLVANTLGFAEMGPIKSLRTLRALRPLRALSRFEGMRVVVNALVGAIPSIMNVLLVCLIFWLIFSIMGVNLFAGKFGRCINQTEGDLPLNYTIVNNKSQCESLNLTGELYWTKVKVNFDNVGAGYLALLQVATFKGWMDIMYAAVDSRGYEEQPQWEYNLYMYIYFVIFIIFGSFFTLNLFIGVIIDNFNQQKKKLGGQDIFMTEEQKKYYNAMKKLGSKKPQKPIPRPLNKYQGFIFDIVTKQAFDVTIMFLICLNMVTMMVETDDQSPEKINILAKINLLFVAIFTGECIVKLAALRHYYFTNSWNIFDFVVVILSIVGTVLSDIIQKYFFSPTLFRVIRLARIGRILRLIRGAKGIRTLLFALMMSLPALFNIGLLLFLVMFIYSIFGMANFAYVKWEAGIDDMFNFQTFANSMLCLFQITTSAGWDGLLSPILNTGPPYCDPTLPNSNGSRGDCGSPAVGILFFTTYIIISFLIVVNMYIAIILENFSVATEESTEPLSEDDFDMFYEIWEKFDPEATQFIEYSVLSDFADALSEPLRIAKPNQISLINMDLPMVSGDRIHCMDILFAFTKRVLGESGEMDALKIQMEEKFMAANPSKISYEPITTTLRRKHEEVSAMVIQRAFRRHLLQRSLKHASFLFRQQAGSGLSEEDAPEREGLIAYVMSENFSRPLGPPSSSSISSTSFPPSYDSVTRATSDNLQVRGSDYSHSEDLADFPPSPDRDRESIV

Structure (SMILES)	IC50 (human NaV1.7)	IC50 (hNav1.7)	IC50 (NaV1.5; read-out: Nav1.5)	IC50 (NaV1.5; [1])
O=C(O)[C@@H]1[C@@H]2C[C@@H]2CN1C(=O)c1cc(C2CC2)c(OCC23CC4CC(CC(C4)C2)C3)cc1F (racemic) [Example 61, racemate-(1R, 3S, 5R)-2-(4-((adamantan-1-yl)methoxy)-5-cyclopropyl-2-fluorobenzoyl)-2-azabicyclo[3.1.0]hexane-3-carboxylic acid]	2.7 µM	0.97 µM	12 µM	
C[C@H](c1cc(Cl)cc(Cl)c1)N1CCC[C@H](COc2cc(F)c(C(=O)N3CCC[C@H]3C(=O)O)cc2C2CC2)C1 (single isomer, unassigned) [Example 73a]	2.2 µM	0.36 µM	12 µM	
C[C@@H](c1cc(Cl)cc(Cl)c1)N1CCC[C@H](COc2cc(F)c(C(=O)N3CCC[C@H]3C(=O)O)cc2C2CC2)C1 (single isomer, unassigned) [Example 73b]	1.5 µM	0.093 µM	22 µM	
C[C@@H](c1cc(Cl)cc(Cl)c1)N1CCC(COc2cc(F)c(C(=O)N3CCC[C@H]3C(=O)O)cc2C2CC2)CC1 (single isomer, unassigned) [Example 79a]	0.69 µM	0.047 µM		≥ 30 µM
CC(c1cc(Cl)cc(Cl)c1)N1CCC(COc2cc(F)c(C(=O)N3CCC[C@H]3C(=O)O)cc2C2CC2)CC1 (single isomer, unassigned) [Example 79b]	0.79 µM	0.073 µM		≥ 30 µM
O=C(O)[C@@H]1CCCN1C(=O)c1cc(C2CC2)c(OC2C3CC4CC2CC(Cl)(C4)C3)cc1F (single isomer, unassigned) [Example 80]	1.5 µM	0.59 µM		≥ 30 µM
O=C(O)[C@@H]1CCCN1C(=O)c1cc(Cl)c(OC2C3CC4CC2CC(Cl)(C4)C3)cc1F (single isomer, unassigned) [Example 81]	16 µM	8.9 µM		≥ 30 µM
CC1(COc2cc(F)c(C(=O)N[C@H](C(=O)O)C3CC3)cc2C2CC2)CN([C@H](c2ccccc2)c2cc(Cl)cc(Cl)c2)C1 (single isomer, unassigned) [Example 113]	0.61 µM	0.0076 µM	15 µM	
CC1(COc2cc(F)c(C(=O)N[C@H](C(=O)O)C3CC3)cc2C2CC2)CN([C@@H](c2ccccc2)c2cc(Cl)cc(Cl)c2)C1 (single isomer, unassigned) [Example 114]	1.7 µM	0.02 µM	13 µM	
C[C@H]1CCN(C(=O)c2cc(C3CC3)c(OCC3(C)CN([C@H](c4ccccc4)c4cc(Cl)cc(Cl)c4)C3)cc2F)[C@@H]1C(=O)O (single isomer, unassigned) [Example 115]	0.3 µM	0.0077 µM	11 µM	
C[C@H]1CCN(C(=O)c2cc(C3CC3)c(OCC3(C)CN([C@@H](c4ccccc4)c4cc(Cl)cc(Cl)c4)C3)cc2F)[C@@H]1C(=O)O (single isomer, unassigned) [Example 116]	0.58 µM	0.012 µM	15 µM	
CC1(COc2cc(F)c(C(=O)N3C[C@H](F)C[C@H]3C(=O)O)cc2C2CC2)CN([C@@H](c2ccccc2)c2cc(Cl)cc(Cl)c2)C1 (single isomer, unassigned) [Example 117]	0.51 µM	0.023 µM	8.5 µM	
O=C(N[C@H](C(=O)O)C1CC1)c1cc(C2CC2)c(OCC2CCN([C@H](c3ccccc3)c3cc(Cl)cc(Cl)c3)CC2)cc1F (single isomer, unassigned) [Example 118]	0.76 µM	0.021 µM	15 µM	
O=C(O)[C@@H]1CC(F)(F)CN1C(=O)c1cc(C2CC2)c(OCC23CC4CC(CC(C4)C2)C3)cc1F [Example 48, (2S)-1-[4-(1-adamantylmethoxy)-5-cyclopropyl-2-fluoro-benzoyl]-4,4-difluoro-pyrrolidine-2-carboxylic acid]	0.64 µM	0.04 µM		
O=C(O)[C@@H]1C[C@@H](F)CN1C(=O)c1cc(C2CC2)c(OCC23CC4CC(CC(C4)C2)C3)cc1F [Example 49, (2S,4R)-1-[4-(1-adamantylmethoxy)-5-cyclopropyl-2-fluoro-benzoyl]-4-fluoro-pyrrolidine-2-carboxylic acid]	0.23 µM	0.01 µM		
O=C(O)[C@@H]1CCCN1C(=O)c1cc(C2CC2)c(O[C@H]2CCCN(Cc3ccc(F)cc3Cl)C2)cc1F [Example 95, (S)-1-(4-(((S)-1-(2-chloro-4-fluorobenzyl)piperidin-3-yl)oxy)-5-cyclopropyl-2-fluorobenzoyl)pyrrolidine-2-carboxylic acid]		≥ 10 µM		≥ 30 µM
C[C@@H](c1cc(Cl)cc(Cl)c1)N1CCC(COc2cc(F)c(C(=O)N3C[C@H](F)C[C@H]3C(=O)O)cc2C2CC2)CC1 [Example 100]			18 µM	
C[C@@H]1CC[C@@H](C(=O)O)N1C(=O)c1cc(C2CC2)c(OCC23CC4CC(CC(C4)C2)C3)cc1F [Example 152, (2S,5R)-1-[4-(1-adamantylmethoxy)-5-cyclopropyl-2-fluoro-benzoyl]-5-methyl-pyrrolidine-2-carboxylic acid]			13 µM	
C[C@H]1CC[C@@H](C(=O)O)N1C(=O)c1cc(C2CC2)c(OCC23CC4CC(CC(C4)C2)C3)cc1F [Example 153, (2S,5S)-1-[4-(1-adamantylmethoxy)-5-cyclopropyl-2-fluoro-benzoyl]-5-methyl-pyrrolidine-2-carboxylic acid]			19 µM	
C[C@@H](c1cc(Cl)cc(Cl)c1)N1CCC(COc2cc(F)c(C(=O)N3C[C@H](F)C[C@H]3C(=O)O)cc2C2CC2)CC1 [Example 158, (2S,4R)-1-[5-cyclopropyl-4-[[1-[(1S)-1-(3,5-dichlorophenyl)ethyl]-4-piperidyl]methoxy]-2-fluoro-benzoyl]-4-fluoro-pyrrolidine-2-carboxylic acid]				≥ 30 µM
Nc1noc2ccc(-c3cc(Cl)ccc3Oc3cc(F)c(C(=O)N4CCC[C@H]4C(=O)O)cc3F)cc12 [Example 192, (S)-1-(4-(2-(3-aminobenzo[d]isoxazol-5-yl)-4-chlorophenoxy)-2,5-difluorobenzoyl)pyrrolidine-2-carboxylic acid trifluoroacetate]		≥ 10 µM		≥ 30 µM
